Measurements as given in PMC5912973 (ChemMedChem, 2018).
Read-outs that look alike come from different tables or passages of the source.

Assays:
HIVIDV-5 μM = experiment: microbe, parasite or virus in culture; type: cell-based, HIV-1
wild-type HIV-1NL4-3 = experiment: Antiviral p24 assay in MT-4 cells, wild-type HIV-1NL4-3; type: cell-based
HIVLPV-5 μM = experiment: microbe, parasite or virus in culture; type: cell-based, HIV-1
HIVTPV-15 μM = experiment: microbe, parasite or virus in culture; type: cell-based, HIV-1
HIVDRV^RP51 = experiment: microbe, parasite or virus in culture; type: cell-based, HIV-1; conditions: for fold change of IC50 relative to HIV-1NL4-3: HIVDRV^RP51 vs wild type
HIVATV-5 μM = experiment: microbe, parasite or virus in culture; type: cell-based, HIV-1
HIVAPV-5 μM = experiment: microbe, parasite or virus in culture; type: cell-based, HIV-1
HIVDRV^RP20 = experiment: microbe, parasite or virus in culture; type: cell-based, HIV-1; conditions: for fold change of IC50 relative to HIV-1NL4-3: HIVDRV^RP20 vs wild type
HIVNFV-5 μM = experiment: microbe, parasite or virus in culture; type: cell-based, HIV-1
HIVSQV-5 μM = experiment: microbe, parasite or virus in culture; type: cell-based, HIV-1
HIVDRV^RP30 = experiment: microbe, parasite or virus in culture; type: cell-based, HIV-1; conditions: for fold change of IC50 relative to HIV-1NL4-3: HIVDRV^RP30 vs wild type
HIV-1 protease = HIV-1 protease (Human immunodeficiency virus type 1 group M subtype B, UniProt P04585); experiment: HIV-1 protease inhibitory activity, assay protocol of Toth and Marshall; type: biochemical; conditions: as printed in text or footnote
[1] = target: dimerization of HIV-1 protease subunits (Human immunodeficiency virus type 1 group M subtype B, UniProt P12497); experiment: FRET-based HIV-1 expression assay of protease dimerization in COS-7 cells; type: cell-based
HIVLAI = experiment: Antiviral activity in MT-2 human T-lymphoid cells exposed to HIVLAI; type: cell-based, HIV-1; conditions: MT-2/HIVLAI
[2] = brain concentration 32.6 nM at 360 min; ref [23]; cited from earlier work
[3] = read-out: IC50 ± SD, MT-4 cells, HIVNL4-3 WT, p24 assay
[4] = read-out: IC50 ± SD, MT-4 cells, HIVDRV^RP51, p24 assay
[5] = read-out: Mean IC50 ± SD, MT-4 cells, HIVATV-5 μM, p24 assay
[6] = read-out: IC50 ± SD, MT-4 cells, HIVDRV^RP20, p24 assay
[7] = read-out: IC50 ± SD, MT-4 cells, HIVDRV^RP30, p24 assay
[8] = Human immunodeficiency virus 1, MT4, read-out: Mean IC50 ± SD
[9] = Human immunodeficiency virus 1, MT4, read-out: IC50 ± SD

COC(=O)N[C@H](C(=O)N[C@@H](Cc1ccccc1)[C@@H](O)CN(Cc1ccc(-c2ccccn2)cc1)NC(=O)[C@@H](NC(=O)OC)C(C)(C)C)C(C)(C)C [ATV]
fold-change of IC50 vs HIVNL4-3 WT (HIVIDV-5 μM; HIVIDV-5 μM): 11 fold
IC50 (HIVIDV-5 μM; read-out: Mean IC50 ± SD, MT-4 cells, HIVIDV-5 μM, p24 assay): 59 ± 13 nM
IC50 (wild-type HIV-1NL4-3; [3]): 5.2 ± 0.3 nM
fold-change of IC50 vs HIVNL4-3 WT (HIVLPV-5 μM; HIVLPV-5 μM): 7 fold
IC50 (HIVLPV-5 μM; read-out: Mean IC50 ± SD, MT-4 cells, HIVLPV-5 μM, p24 assay): 36 ± 9 nM
fold-change of IC50 vs HIVNL4-3 WT (HIVTPV-15 μM; HIVTPV-15 μM): > 192 fold
IC50 (HIVTPV-15 μM; read-out: Mean IC50 ± SD, MT-4 cells, HIVTPV-15 μM, p24 assay): > 1000 nM
fold change of IC50 relative to HIV-1NL4-3 (HIVDRV^RP51): > 192 fold
IC50 (HIVDRV^RP51; [4]): > 1000 nM
fold-change of IC50 vs HIVNL4-3 WT (HIVATV-5 μM; HIVATV-5 μM): > 192 fold
IC50 (HIVATV-5 μM; [5]): > 1000 nM
fold-change of IC50 vs HIVNL4-3 WT (HIVAPV-5 μM; HIVAPV-5 μM): 0.5 fold
IC50 (HIVAPV-5 μM; read-out: Mean IC50 ± SD, MT-4 cells, HIVAPV-5 μM, p24 assay): 2.4 ± 0.7 nM
fold change of IC50 relative to HIV-1NL4-3 (HIVDRV^RP20): > 192 fold
IC50 (HIVDRV^RP20; [6]): > 1000 nM
fold-change of IC50 vs HIVNL4-3 WT (HIVNFV-5 μM; HIVNFV-5 μM): 3.7 fold
IC50 (HIVNFV-5 μM; read-out: Mean IC50 ± SD, MT-4 cells, HIVNFV-5 μM, p24 assay): 19 ± 1 nM
fold-change of IC50 vs HIVNL4-3 WT (HIVSQV-5 μM; HIVSQV-5 μM): 105 fold
IC50 (HIVSQV-5 μM; read-out: Mean IC50 ± SD, MT-4 cells, HIVSQV-5 μM, p24 assay): 548 ± 177 nM
fold change of IC50 relative to HIV-1NL4-3 (HIVDRV^RP30): > 192 fold
IC50 (HIVDRV^RP30; [7]): > 1000 nM

CC(C)CN(C[C@@H](O)[C@H](Cc1ccccc1)NC(=O)O[C@H]1CO[C@H]2OCC[C@H]21)S(=O)(=O)c1ccc(N)cc1 [DRV, darunavir]
IC50 (HIVIDV-5 μM; [8]): 42 ± 1 nM
IC50 (wild-type HIV-1NL4-3; [9]): 3.7 ± 0.7 nM
IC50 (HIVLPV-5 μM; [8]): 275 ± 64 nM
IC50 (HIVTPV-15 μM; [8]): 41 ± 3 nM
IC50 (HIVDRV^RP51; [9]): 4670 ± 1260 nM
IC50 (HIVATV-5 μM; [8]): 26 ± 1 nM
IC50 (HIVAPV-5 μM; [8]): 43 ± 22 nM
IC50 (HIVDRV^RP20; [9]): 60 ± 6 nM
IC50 (HIVNFV-5 μM; [8]): 6.1 ± 0.8 nM
IC50 (HIVSQV-5 μM; [8]): 22 ± 6 nM
IC50 (HIVDRV^RP30; [9]): 134 ± 43 nM

CC(C)CN(C[C@@H](O)[C@H](Cc1cc(F)cc(F)c1)NC(=O)O[C@H]1C2CO[C@H]3OC[C@@H]1C3C2)S(=O)(=O)c1ccc(N)cc1 (stereo partly drawn) [Inhibitor 4, (3S,7 aS,8S)-Hexahydro-4H-3,5-methanofuro[2,3-b]pyran-8-yl((2S,3R)-4-((4-amino-N-isobutylphenyl)sulfonamido)-1-(3,5-difluorophenyl)-3-hydroxybutan-2-yl)carbamate]
Ki (HIV-1 protease): 0.004 nM
IC50 (wild-type HIV-1NL4-3; [3]): 5.9 ± 0.4 nM
fold change of IC50 relative to HIV-1NL4-3 (HIVDRV^RP51): 82 fold
IC50 (HIVDRV^RP51; [4]): 486 ± 52 nM
fold change of IC50 relative to HIV-1NL4-3 (HIVDRV^RP20): 4 fold
IC50 (HIVDRV^RP20; [6]): 24 ± 9 nM
fold change of IC50 relative to HIV-1NL4-3 (HIVDRV^RP30): 1.9 fold
IC50 (HIVDRV^RP30; [7]): 11 ± 13 nM

CC(C)CN(C[C@@H](O)[C@H](Cc1cc(F)cc(F)c1)NC(=O)O[C@H]1C2CO[C@H]3OC[C@@H]1C3C2)S(=O)(=O)c1ccc2nc(NC3CC3)sc2c1 (stereo partly drawn) [Inhibitor 5, (3S,7 aS,8S)-Hexahydro-4H-3,5-methanofuro[2,3-b]pyran-8-yl((2S,3R)-4-((2-(cyclopropylamino)-N-isobutylbenzo[d]thiazole)-6-sulfonamido)-1-(3,5-difluorophenyl)-3-hydroxybutan-2-yl)carbamate]
concentration at which dimerization of protease subunits is blocked [1]: 0.1 nM
fold-change of IC50 vs HIVNL4-3 WT (HIVIDV-5 μM; HIVIDV-5 μM): 0.02 fold
Ki (HIV-1 protease): 0.014 nM
IC50 (wild-type HIV-1NL4-3; [3]): 0.016 ± 0.017 nM
fold-change of IC50 vs HIVNL4-3 WT (HIVLPV-5 μM; HIVLPV-5 μM): 0.0002 fold
fold-change of IC50 vs HIVNL4-3 WT (HIVTPV-15 μM; HIVTPV-15 μM): 0.02 fold
fold change of IC50 relative to HIV-1NL4-3 (HIVDRV^RP51): 175 fold
IC50 (HIVDRV^RP51; [4]): 2.8 ± 0.2 nM
fold potency enhancement of antiviral IC50 over DRV (HIVLAI; vs DRV): more than 150 fold
fold improvement of antiviral IC50 over compound 4 (HIVLAI; vs compound 4): 100 fold
fold more potent than inhibitor 3 (antiviral) (HIVLAI; vs inhibitor 3): over 15 fold
fold-change of IC50 vs HIVNL4-3 WT (HIVATV-5 μM; HIVATV-5 μM): 1.3 fold
IC50 (HIVATV-5 μM; [5]): 0.02 ± 0.01 nM
brain drug level relative to its IC50 value [2]: ~1880 fold
fold-change of IC50 vs HIVNL4-3 WT (HIVAPV-5 μM; HIVAPV-5 μM): 0.0006 fold
fold change of IC50 relative to HIV-1NL4-3 (HIVDRV^RP20): 0.1 fold
IC50 (HIVDRV^RP20; [6]): 0.0016 ± 0.002 nM
fold-change of IC50 vs HIVNL4-3 WT (HIVNFV-5 μM; HIVNFV-5 μM): 0.04 fold
fold-change of IC50 vs HIVNL4-3 WT (HIVSQV-5 μM; HIVSQV-5 μM): 0.01 fold
fold change of IC50 relative to HIV-1NL4-3 (HIVDRV^RP30): 1 fold
IC50 (HIVDRV^RP30; [7]): 0.015 ± 0.015 nM
